Where no end group is shown, it is not given here. [ ]: non-standard residue; d: D form. hCit = NC(=O)NCCCC[C@H](N)C(=O)O
system: HLA-HHDII/DP4 mice; experiment: Ex vivo IFNγ ELISpot after peptide immunisation, HHDII/DP4 mice; format: in vivo, mouse; conditions: not given
Experimental: C57BL/6 mice (Charles River, UK), HLA-DR4 mice (Model #4149, Taconic, USA), HLA-A2/DR1 (HHDII/DR1, Pasteur Institute), HLA-A2.1+/+HLA-DP4+/+hCD4+/+ (HLA-HHDII/DP4) transgenic mice (EM: 02221, European Mouse Mutant Archive) described in patent WO2013/017545 A1 (EMMA repository, France) were used, aged between 8 and 12 weeks. Peptides were dissolved in PBS to 1 mg/ml and then emulsified (a series of dilutions) with CpG ODN 1826 and MPLA 6 μg/mouse of each (Invivogen, UK). Peptides (25 μg/mouse) were injected subcutaneously at the base of the tail. Mice were immunised at days 1, 7 and 14 for peptide immunisation. Spleens were removed for analysis at day 21 unless stated otherwise.
ELISpot assays were performed using murine IFNγ, IL-17 and IL-10 capture and detection reagents according to the manufacturer's instructions (Mabtech, Sweden). In brief, anti-IFNγ, IL-17 and IL-10 specific antibodies were coated onto wells of 96-well Immobilin-P plate. Synthetic peptides (at various concentrations) and 5×10^5 per well splenocytes were added to wells of the plate in quadruplicate Tumour target cells were added where relevant at 5×10^4/well in triplicate and plates incubated for 40 hrs at 37° C. After incubation, captured IFNγ, IL-10 and IL-17 were detected by biotinylated anti-IFNγ, IL-10 and IL-17 antibodies and developed with a streptavidin alkaline phosphatase and chromogenic substrate. Lipopolysaccharide (LPS; 5 μg/ml) was used as a positive control. For MHC blocking studies, anti-CD4 blocking antibody (GK1.5) or anti-CD4 blocking antibody (RPA-T4) for HHDII/DP4 mice which express human CD4 and anti-CD8 blocking antibody (2.43) from Bioxcell were used at 20 μg/ml. Spots were analysed and counted using an automated plate reader (Cellular Technologies Ltd).
Screening was performed to identify potential homocitrullinated ALDOA epitopes in transgenic HHDII/DP4 and HHDII/DR1 mice. Mice were immunised with pools of human homocitrullinated peptides. […] Each pool was administered as three immunisations containing 20 μg of each peptide and CpG/MPLA as an adjuvant. After 21 days the mice were culled and the immune responses to each peptide within the immunising pool were assessed by ex vivo ELISpot in HHDII/DP4 (FIG. 4b) and HHDII/DR1 mice (FIG. 4d). […] Our predictions therefore identified 3/5 peptides which could induce a T cell response. […] Of the responding peptides ALDOA 74-93 Hcit and 140-157 Hcit peptides are homologous in human and mice therefore these two peptides were selected for further investigation. Minimal IL-10 (FIG. 6b) or IL-17 (FIG. 6c) responses were seen to Aldolase peptides in HHDII/DP4 mice.
Using this combination of predictions, 5 CyK8 peptides containing homocitrulline were synthesised (Table 4). Screening was performed to identify potential homocitrullinated Cyk8 epitopes in transgenic HHDII/DP4. Mice were immunised with pools of human homocitrullinated peptides. […] Each pool was administered as three immunisations containing 20 μg of each peptide and CpG/MPLA as an adjuvant. After 21 days the mice were culled and the immune responses to each peptide within the immunising pool were assessed by ex vivo ELISpot in HHDII/DP4 (FIG. 10a). […] The responses to CyK8 101-120 Hcit, 112-131 Hcit, 182-201 Hcit, 371-388 Hcit and 381-399 Hcit immunisation were characterised for cross reactivity to the wt peptide sequence. […] Thus a key characteristic of immunogenic peptides is they express homocitrulline. All of these peptides (100%) were immunogenic. Thus a high predicted HLA-DP4 binding affinity (<30), the presence of homocitrulline residues in the core region, the peptide being amphipathic in nature with a predominantely spiral conformational structure upon 3D modelling, and the existence of homology between the mouse and human sequences defines immunogenicity. When this model was applied retrospectively to include the vimentin and ALDOA peptides 8/9 (88%) were correctly predicted. […]

Substance | cross reactivity of Hcit response to wt peptide | IFNγ response in presence of CD4 blocking antibody | IFNγ response in presence of CD8 blocking antibody
hcit-LALDIEIATYR-hcit-LLEGEE ([hCit]LALDIEIATYR[hCit]LLEGEE) [Cyk8 381-399 Hcit] | significantly higher | – | –
IGGVILFHETLYQ-hcit-ADDGRP (IGGVILFHETLYQ[hCit]ADDGRP) [Aldolase A 74-93 Hcit] | limited responses | significantly reduced | –
LEQQN-hcit-MLET-hcit-WSLLQQQ-hcit-T (LEQQN[hCit]MLET[hCit]WSLLQQQ[hCit]T) [Cyk8 112-131 Hcit] | significantly higher | not with CD4 blocking antibody | inhibited
LREYQELMNV-hcit-LALDIEI (LREYQELMNV[hCit]LALDIEI) [Cyk8 371-388 Hcit] | significantly higher | inhibited | –
KFASFID-Hcit-VRFLEQQN-Hcit-MLE (KFASFID[hCit]VRFLEQQN[hCit]MLE) [Cyk8 101-120 Hcit] | – | inhibited | –
hcit-DGADFA-hcit-WRCVL-hcit-IGEH ([hCit]DGADFA[hCit]WRCVL[hCit]IGEH) [Aldolase A 140-157 Hcit] | limited responses | significantly reduced | –

same assay, conditions: 3 immunisations with CpG/MPLA, day 21

Substance | IFNγ ELISpot response
hcit-LALDIEIATYR-hcit-LLEGEE ([hCit]LALDIEIATYR[hCit]LLEGEE) [Cyk8 381-399 Hcit] | stimulation of IFNγ responses
IGGVILFHETLYQ-hcit-ADDGRP (IGGVILFHETLYQ[hCit]ADDGRP) [Aldolase A 74-93 Hcit] | stimulation of IFNγ responses
LEQQN-hcit-MLET-hcit-WSLLQQQ-hcit-T (LEQQN[hCit]MLET[hCit]WSLLQQQ[hCit]T) [Cyk8 112-131 Hcit] | stimulation of IFNγ responses
NYID-Hcit-VRFLEQQN-Hcit-ILLAEL (NYID[hCit]VRFLEQQN[hCit]ILLAEL) [Vimentin 116-135 Hcit] | no IFNγ responses were observed
HACTQ-hcit-FSH(N)EEIAMATVTA (HACTQ[hCit]FSHNEEIAMATVTA; not fully specified; printed as HACTQ-hcit-FSH(N)EEIAMATVTA) [Aldolase A 238-256 Hcit] | stimulation of IFNγ responses
KFASFID-Hcit-VRFLEQQN-Hcit-MLE (KFASFID[hCit]VRFLEQQN[hCit]MLE) [Cyk8 101-120 Hcit] | stimulation of IFNγ responses
EIN-hcit-RTEMENEFVLI-hcit-hcit-DVDE (EIN[hCit]RTEMENEFVLI[hCit][hCit]DVDE) [Cyk8 182-202 Hcit] | stimulation of IFNγ responses
hcit-DGADFA-hcit-WRCVL-hcit-IGEH ([hCit]DGADFA[hCit]WRCVL[hCit]IGEH) [Aldolase A 140-157 Hcit] | stimulation of IFNγ responses

From patent publication US12458688B2, “Epitopes” (Scancell Limited, priority 2018, dated 2025)
